From patent US20070123473A1, “Glycosylated steroid derivatives with anti-migratory activity” (priority 2003, published 2007)

Assays:
Hs578T (breast cancer) = assay: Cell migration of cancer cells (phase-contrast videomicroscopy), Hs578T; assay type: cell-based, human
Experimental: (§1) Cells of different types of cancer, i.e. U-373 MG (Glioma), Hs578T (breast cancer), PC-3 (prostate cancer) and A549 (lung cancer) were seeded on culture flask 48 hours before the migration experiment. On the test day, cells were treated with or without compounds UBS3270, UBS3285, UBS3327, UBS3328, UBS3501, UBS3585, UBS3597, UBS3976, UBS4066, UBS4095, UBS4104, UBS4109, UBS4209 and UBS4373 in closed Falcon dishes containing a buffered medium at a controlled temperature (37.0±0.1° C.) for 12 or 24 hours. The compounds were administered at 4 concentrations (10^−7 M to 10^−10 M). Migration of the cells was observed by means of a CCD-camera mounted on a phase-contrast microscope. A statistical analyse of the migration, with the non-parametric Mann-Whitney test, was established for 25%-50% of the most motile cells and for the entire cell population for UBS3270, UBS3285, UBS3327, UBS3328, UBS3501, UBS3585, UBS3597, UBS3976, UBS4066, UBS4095, UBS4104, UBS4109, UBS4209 and UBS4373 compounds. The table C below illustrates the anti-migratory effect of the compound according to the invention.

U-373 MG (Glioma) = assay: Cell migration of cancer cells (phase-contrast videomicroscopy), U-373 MG; assay type: cell-based, human
Experimental: as §1

A549 (lung cancer) = assay: Cell migration of cancer cells (phase-contrast videomicroscopy), A549; assay type: cell-based, human; details: 25% of most motile cells
Experimental: as §1

P388 lymphoma = assay: Survival of P388 lymphoma bearing mice (T/C index); assay type: in vivo, mouse; details: 40 mg/kg subcutaneously, T/C of 130% or more = significant prolongation of survival
Experimental: The compounds UBS3328 and UBS3501 were evaluated on the aggressive P388 lymphoma cancer model. When leukemic P388 cells of lymphoblastic origin (Pihl A. UICC Study Group on chemosensitivity testing of human tumors. Problems-applications-future prospects. Int J Cancer. 1986 Jan. 15; 37(1):1-5) are grafted subcutaneously, they develop as very biologically aggressive anaplastic lymphomas markedly metastasizing first into the liver, then in the lungs and occasionally in kidneys. The mice suffering from P388 lymphomas usually die about 2 weeks after the cell injection. The P388 lymphoma was thus used as a model representative of a clinically terminal state of cancer.
The model was performed with 5 mice per group and the compounds UBS3328 and UBS3501 were injected subcutaneously at 40 mg/kg for 4 days, two times per day, for the two first weeks post graft followed by one administration everyday, one times per day for the third week post graft.
The effect of the compounds UBS3328 and UBS3501 on the survival of the P388 cancer bearing mice is evaluated following the analysis of the T/C index. T/C index is calculated by dividing the median day of death in a treated group T by the median day of death in the control group C. T/C values of 130% or more (i.e. a prolongation of mice survival of 30% or more) indicate a significant prolongation of survival.

PC-3 (prostate cancer) = assay: Cell migration of cancer cells (phase-contrast videomicroscopy), PC-3; assay type: cell-based, human
Experimental: as §1

[1] = 24 hours, 25% of most motile cells, 10^−9 M
[2] = 12 hours, entire cell population, 10^−9 M

**Q.** Which “Max. effects (anti-migratory effect)” value (Hs578T (breast cancer); 24 hours, 50% of most motile cells, 10^−7 M) does the source give for `COc1ccc(OC)c(C2CC3C4CC=C5CC(OC6O[C@H](CO)[C@@H](O)[C@H](O)[C@@H]6O)CCC5(C)C4CCC3(C)C2C(C)=O)c1` (some centres unmarked) [UBS3270] here?
**A.** −27%/p < 0.001

**Q.** With `COc1ccc(OC)c(C2CC3C4CC=C5CC(OC6O[C@H](CO[C@H]7O[C@H](CO)[C@@H](O)[C@H](O)[C@H]7O)[C@@H](O)[C@H](O)[C@H]6O)CCC5(C)C4CCC3(C)C2C(C)=O)c1` (some centres unmarked) [UBS3328] as the compound, how does the “Max. effects (anti-migratory effect)” value (U-373 MG (Glioma); 12 hours, entire cell population, 10^−10 M) read?
**A.** −27%/p < 0.001

**Q.** What about the “Max. effects (anti-migratory effect)” value (A549 (lung cancer); 24 hours, 10^−7 M) of the same compound?
**A.** −40%/p < 0.001

**Q.** What about the “T/C index (median day of death treated / control)” value (P388 lymphoma) of the same compound?
**A.** 135%

**Q.** How did the “Max. effects (anti-migratory effect)” value (U-373 MG (Glioma); 24 hours, 25% of most motile cells, 10^−8 M) turn out when `COc1ccc(OC)c(C2CC3C4CC=C5CC(OC6O[C@@H](C)[C@@H](O)[C@@H](O)[C@@H]6O)CCC5(C)C4CCC3(C)C2C(C)=O)c1` (some centres unmarked) [UBS3501] was run?
**A.** −38%/p = 0.01

**Q.** And the “Max. effects (anti-migratory effect)” value (PC-3 (prostate cancer); 12 hours, 25% of most motile cells, 10^−7 M)?
**A.** −23%/p < 0.001

**Q.** And the “T/C index (median day of death treated / control)” value (P388 lymphoma)?
**A.** 141%

**Q.** How did the “Max. effects (anti-migratory effect)” value (Hs578T (breast cancer); 24 hours, entire cell population, 10^−7 M) turn out when `COc1ccc(OC)c(C2CC3C4CC=C5CC(OC6O[C@H](CO)[C@@H](O)[C@H](O)[C@H]6NC(C)=O)CCC5(C)C4CCC3(C)C2C(C)=O)c1` (some centres unmarked) [UBS3585] was run?
**A.** −27%/p < 0.001

**Q.** How did the “Max. effects (anti-migratory effect)” value (PC-3 (prostate cancer); [1]) turn out when `COc1ccc(OC)c(C2CC3C4CC=C5CC(OC6O[C@H](CO)[C@H](O)[C@H](O)[C@H]6NC(C)=O)CCC5(C)C4CCC3(C)C2C(C)=O)c1` (some centres unmarked) [UBS3597] was run?
**A.** −31%/p < 0.001

**Q.** For `COc1ccc(OC)c(C2CC3C4CC=C5CC(OC6O[C@H](CO)[C@@H](O[C@@H]7O[C@H](CO)[C@H](O)[C@H](O)[C@H]7O)[C@H](O)[C@H]6O)CCC5(C)C4CCC3(C)C2C(C)=O)c1` (some centres unmarked) [UBS3976], which “Max. effects (anti-migratory effect)” value (U-373 MG (Glioma); 24 hours, 25% of most motile cells, 10^−10 M) is on record?
**A.** −46%/p < 0.001

**Q.** And the “Max. effects (anti-migratory effect)” value (PC-3 (prostate cancer); 12 hours, 25% of most motile cells, 10^−8 M)?
**A.** −51%/p < 0.001

**Q.** How did the “Max. effects (anti-migratory effect)” value (Hs578T (breast cancer); 12 hours, 25% of most motile cells, 10^−9 M) turn out when `COc1ccc(OC)c(C2CC3C4CC=C5CC(OC6O[C@@H](C)[C@@H](O)[C@@H](O)[C@@H]6O)CCC5(C)C4CCC3(C)C2C(C)OC2O[C@@H](C)[C@@H](O)[C@@H](O)[C@@H]2O)c1` (some centres unmarked) [UBS4066] was run?
**A.** −29%/p < 0.001

**Q.** What about the “Max. effects (anti-migratory effect)” value (PC-3 (prostate cancer); [1]) of the same compound?
**A.** −45%/p < 0.001

**Q.** With `COc1ccc(OC)c(C2CC3C4CC=C5CC(OC6O[C@H](CO)[C@@H](O[C@H]7O[C@H](CO)[C@@H](O)[C@H](O)[C@H]7O)[C@H](O)[C@H]6O)CCC5(C)C4CCC3(C)C2C(C)=O)c1` (some centres unmarked) [UBS4095] as the compound, how does the “Max. effects (anti-migratory effect)” value (U-373 MG (Glioma); 24 hours, entire cell population, 10^−9 M) read?
**A.** −27%/p < 0.001

**Q.** How did the “Max. effects (anti-migratory effect)” value (U-373 MG (Glioma); 12 hours, 50% of most motile cells, 10^−10 M) turn out when `COc1ccc(OC)c(C2CC3C4CC=C5CC(O[C@@H]6O[C@H](CO)[C@@H](O)[C@H](O)[C@H]6NC(C)=O)CCC5(C)C4CCC3(C)C2C(C)=O)c1` (some centres unmarked) [UBS4104] was run?
**A.** −23%/p < 0.001

**Q.** And the “Max. effects (anti-migratory effect)” value (A549 (lung cancer); 24 hours, 10^−10 M)?
**A.** −46%/p < 0.001

**Q.** Which “Max. effects (anti-migratory effect)” value (PC-3 (prostate cancer); [2]) does the source give for `COc1ccc(OC)c(C2CC3C4CC=C5CC(OC6O[C@H](CO)[C@@H](O[C@@H]7O[C@H](CO)[C@@H](O)[C@H](O)[C@H]7O)[C@H](O)[C@H]6O)CCC5(C)C4CCC3(C)C2C(C)OC2O[C@H](CO)[C@@H](O[C@@H]3O[C@H](CO)[C@@H](O)[C@H](O)[C@H]3O)[C@H](O)[C@H]2O)c1` (some centres unmarked) [UBS4109] here?
**A.** −34%/p < 0.001

**Q.** What does the source list for `COc1ccc(OC)c(C2CC3C4CC=C5CC(OC6O[C@H](CO)[C@@H](O[C@@H]7O[C@H](CO)[C@H](O)[C@H](O)[C@H]7O)[C@H](O)[C@H]6O)CCC5(C)C4CCC3(C)C2C(C)OC2O[C@H](CO)[C@@H](O[C@@H]3O[C@H](CO)[C@H](O)[C@H](O)[C@H]3O)[C@H](O)[C@H]2O)c1` (some centres unmarked) [UBS4209]?
**A.** Max. effects (anti-migratory effect) (Hs578T (breast cancer); 24 hours, 25% of most motile cells, 10^−7 M): −26%/p < 0.001; Max. effects (anti-migratory effect) (A549 (lung cancer); 12 hours, 10^−8 M): −26%/p < 0.001

**Q.** With `COc1ccc(OC)c(C2CC3C4CC=C5CC(OC6O[C@H](CO[C@H]7O[C@H](CO)[C@@H](O)[C@H](O)[C@H]7O)[C@@H](O)[C@H](O)[C@H]6O)CCC5(C)C4CCC3(C)C2C(C)OC2O[C@H](CO[C@H]3O[C@H](CO)[C@@H](O)[C@H](O)[C@H]3O)[C@@H](O)[C@H](O)[C@H]2O)c1` (some centres unmarked) [UBS4373] as the compound, how does the “Max. effects (anti-migratory effect)” value (U-373 MG (Glioma); [2]) read?
**A.** −24%/p < 0.001
